Measured values published in PubChem BioAssay (NCI).
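Method: 48-hour compound exposure of cells in 96-well plates, five concentrations, linear interpolation of endpoints. The concentration for 50% growth inhibition is given as GI50. At the TGI there is no net growth.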

What was measured:
Assay in all cases: NCI tumour cell line growth inhibition, 48 h
[1] = test system: 786-0 renal
[2] = test system: A498 renal
[3] = test system: A549 NSCLC
[4] = test system: ACHN renal
[5] = test system: BT-549 breast
[6] = test system: CAKI-1 renal
[7] = test system: CCRF-CEM leukemia
[8] = test system: COLO 205 colon
[9] = test system: DU-145 prostate
[10] = test system: EKVX NSCLC
[11] = test system: HCC-2998 colon
[12] = test system: HCT-116 colon
[13] = test system: HCT-15 colon
[14] = test system: HL-60(TB) leukemia
[15] = test system: HOP-62 NSCLC
[16] = test system: HOP-92 NSCLC
[17] = test system: HS 578T breast
[18] = test system: HT29 colon
[19] = test system: IGROV1 ovarian
[20] = test system: K-562 leukemia
[21] = test system: KM12 colon
[22] = test system: LOX IMVI melanoma
[23] = test system: M14 melanoma
[24] = test system: MALME-3M melanoma
[25] = test system: MCF7 breast
[26] = test system: MDA-MB-231 breast
[27] = test system: MDA-MB-435
[28] = test system: MOLT-4 leukemia
[29] = test system: NCI-H226 lung
[30] = test system: NCI-H23 lung
[31] = test system: NCI-H460 lung
[32] = test system: NCI-H522 lung
[33] = test system: NCI/ADR-RES ovarian
[34] = test system: OVCAR-3 ovarian
[35] = test system: OVCAR-4 ovarian
[36] = test system: OVCAR-5 ovarian
[37] = test system: OVCAR-8 ovarian
[38] = test system: PC-3 prostate
[39] = test system: RPMI-8226 leukemia
[40] = test system: RXF 393 renal
[41] = test system: SF-268 CNS
[42] = test system: SF-295 CNS
[43] = test system: SF-539 CNS
[44] = test system: SK-MEL-2 melanoma
[45] = test system: SK-MEL-28 melanoma
[46] = test system: SK-MEL-5 melanoma
[47] = test system: SK-OV-3 ovarian
[48] = test system: SN12C renal
[49] = test system: SNB-19 CNS
[50] = test system: SNB-75 CNS
[51] = test system: SR leukemia
[52] = test system: SW-620 colon
[53] = test system: T-47D breast
[54] = test system: TK-10 renal
[55] = test system: U251 CNS
[56] = test system: UACC-257 melanoma
[57] = test system: UACC-62 melanoma
[58] = test system: UO-31 renal

`COc1ccc(C(C)=C(c2ccc(OCCN3CCCCCC3)cc2)c2ccc(OCCN3CCCCCC3)cc2)cc1` gave a GI50 [1] of 0.606 µM, a TGI [1] of 1.55 µM and a GI50 [2] of 2.2 µM. The TGI [2] was 4.41 µM, the GI50 [3] was 1.23 µM and the TGI [3] was 3.85 µM. The GI50 [4] was 2.09 µM, the TGI [4] was 4.37 µM and the GI50 [5] was 2.03 µM. For the same compound, the TGI [5] was 4.21 µM, the GI50 [6] was 1.39 µM and the TGI [6] was 3.73 µM. The GI50 [7] was 0.503 µM, the TGI [7] was 4.32 µM and the GI50 [8] was 0.375 µM. The TGI [8] was 0.948 µM, the GI50 [9] was 2.28 µM and the TGI [9] was 5.73 µM. The GI50 [10] was 2.34 µM, the TGI [10] was 7.2 µM and the GI50 [11] was 0.54 µM. The TGI [11] was 2 µM, the GI50 [12] was 0.369 µM and the TGI [12] was 1.11 µM. It also gave a GI50 [13] of 0.488 µM, a TGI [13] of 1.97 µM and a GI50 [14] of 1.02 µM. For the same compound, the TGI [14] was 2.32 µM, the GI50 [15] was 1.07 µM and the TGI [15] was 3.49 µM. The GI50 [16] was 0.843 µM, the TGI [16] was 3.89 µM and the GI50 [17] was 1.12 µM. The TGI [17] was 4.56 µM, the GI50 [18] was 0.545 µM and the TGI [18] was 2.1 µM. The GI50 [19] was 1.87 µM, the TGI [19] was 4.28 µM and the GI50 [20] was 0.338 µM. The TGI [20] was 0.825 µM, the GI50 [21] was 1.22 µM and the TGI [21] was 4.01 µM. For the same compound, the GI50 [22] was 0.177 µM, the TGI [22] was 0.427 µM and the GI50 [23] was 0.27 µM. It also gave a TGI [23] of 0.515 µM, a GI50 [24] of 0.3 µM and a TGI [24] of 0.616 µM. The GI50 [25] was 0.177 µM, the TGI [25] was 0.579 µM and the GI50 [26] was 1.36 µM. For the same compound, the TGI [26] was 3.95 µM, the GI50 [27] was 0.422 µM and the TGI [27] was 1.17 µM. The GI50 [28] was 0.436 µM, the TGI [28] was 1.29 µM and the GI50 [29] was 2.32 µM. The TGI [29] was 5.33 µM, the GI50 [30] was 2.67 µM and the TGI [30] was 9.52 µM. The GI50 [31] was 0.635 µM, the TGI [31] was 2.18 µM and the GI50 [32] was 2.65 µM. The TGI [32] was 6.1 µM, the GI50 [33] was 2.07 µM and the TGI [33] was 4.55 µM. The GI50 [34] was 1.87 µM, the TGI [34] was 4.07 µM and the GI50 [35] was 2.43 µM. It also gave a TGI [35] of 5.9 µM, a GI50 [36] of 2.44 µM and a TGI [36] of 8.26 µM. For the same compound, the GI50 [37] was 2.62 µM, the TGI [37] was 6.82 µM and the GI50 [38] was 1.72 µM. It also gave a TGI [38] of 4.82 µM, a GI50 [39] of 0.443 µM and a TGI [39] of 1.09 µM. It also gave a GI50 [40] of 0.646 µM, a TGI [40] of 2.56 µM and a GI50 [41] of 1.71 µM. For the same compound, the TGI [41] was 5.07 µM, the GI50 [42] was 0.447 µM and the TGI [42] was 1.31 µM. It also gave a GI50 [43] of 1.02 µM, a TGI [43] of 2.99 µM and a GI50 [44] of 2.95 µM. For the same compound, the TGI [44] was 6.34 µM, the GI50 [45] was 0.312 µM and the TGI [45] was 0.593 µM. For the same compound, the GI50 [46] was 1.31 µM, the TGI [46] was 3.47 µM and the GI50 [47] was 2.55 µM. It also gave a TGI [47] of 5.23 µM, a GI50 [48] of 2.09 µM and a TGI [48] of 4.8 µM. For the same compound, the GI50 [49] was 1.36 µM, the TGI [49] was 4.02 µM and the GI50 [50] was 2.06 µM. For the same compound, the TGI [50] was 5.23 µM, the GI50 [51] was 0.306 µM and the TGI [51] was 0.773 µM. For the same compound, the GI50 [52] was 0.45 µM, the TGI [52] was 1.48 µM and the GI50 [53] was 0.628 µM. It also gave a TGI [53] of 4.55 µM, a GI50 [54] of 3.12 µM and a TGI [54] of 6.73 µM. The GI50 [55] was 0.524 µM, the TGI [55] was 1.83 µM and the GI50 [56] was 0.587 µM. It also gave a TGI [56] of 1.59 µM, a GI50 [57] of 0.869 µM and a TGI [57] of 2.05 µM. The GI50 [58] was 1.78 µM and the TGI [58] was 3.97 µM.
